Test system: human dermal fibroblasts
Experiment: Adipogenesis (Oil Red O) of fibroblasts detached with trypsin and seeded at high density
Type: cell-based
Description: After incubation for about 12-21 days in adipogenic medium, the medium is removed, and cells are fixed in 10% formaldehyde solution in aqueous phosphate buffer for at least 1 hour. Cells are then washed with 60% isopropanol and stained with a working solution of Oil Red 0 solution (in 60% isopropanol, see below for preparation) for 10 minutes. The cells are then washed several times with water, and destained in 100% isopropanol for 15 minutes. The destain solution is removed and the optical density of the solution is measured at 500-510 nm.
In a this set of experiments for producing cells having the ability to differentiate into different cell types, fibroblasts are either incubated in media without trypsin or containing trypsin and then cultured at different lengths of time under high density conditions of about 100,000 cells per well/plate or at about 3703.7 cells per mm^2 surface area of the well/plate before adherence of the cells in a high density plating medium. The cells produced by this method are then tested for their ability to differentiate into adipocytes, as determined by the accumulation of fat.
Fresh human dermal fibroblasts derived from adult skin or from foreskin are purchased from PromoCell® (Banksia Scientific Company, QLD). […]
Test cells are recovered from culture and seeded at concentrations of about 100,000 cells per well/plate or at about 3703.7 cells per mm^2 surface area of the well/plate before attachment of the cells to the plate/well directly in 200 to 400 μl high density plating medium (e.g., Medium 199 containing 170 nM insulin, 0.5 mM 3-isobutyl-1-methylxanthine, 0.2 mM indomethacin, 1 μM dexamethasone, and 15% rabbit serum) for a time and under conditions sufficient for an optimum number of progenitor cells to be produced e.g., for up to about 24 hours or until adherence is achieved, i.e., a shorter time than required for cells to become adherent and/or as determined by analysis of cell marker expression and/or by the ability of aliquots of cells to subsequently undergo differentiation. […]

Substance: trypsin
- ability to differentiate into adipocytes (detached with 0.12% trypsin, seeded at about 100,000 cells per well in high density plating medium before adherence, then adipogenic medium, cells without trypsin gave no detectable adipocytes): capable of differentiating into adipocytes
- optimum time in adipogenic medium for assuming ability to differentiate into adipocytes (numbers of fat-producing cells assayed from day 10 to day 21 in adipogenic medium): 10 to 14 days
- time from incubation with trypsin to high density seeding at which adipocytes are apparent (seeding directly into high density plating medium): ≤ 6 h
